This passage reports zone of inhibition and IC50 results from ChEMBL document CHEMBL1155795, “Revisiting the sponge sources, stereostructure, and biological activity of cyclocinamide a” (J Nat Prod, 2008).

Starred links: 1 amine or outer side, 2 acyl side, 3 side chain; linkers in the order of their positions; H or OH if unused. Positions of bridges follow the written chain, without caps; N, C: chain ends. Non-standard residues stand in square brackets, D forms with d. Residues, ends and D or L forms follow the SMILES beside them. *: point of attachment. Trp(5-Br) = N[C@@H](Cc1c[nH]c2ccc(Br)cc12)C(=O)O; isoSer(2S) = O=C([C@@H](O)CN[*:1])[*:2]; X1 = Cn1cc(Cl)cc1C(=O)*; Dap = NC[C@H](N)C(=O)O

Experiment [1] can be described thus: Cytotoxicity against human […] cells assessed as zone of inhibition at 90 ug/disk by disk diffusion soft agar colony forming assay. It is filed as functional. The settings on record: read-out: IZ. In general terms: Agar diffusion results depend on both activity and mobility in agar.
A short description of experiment [2]: Cytotoxicity against mouse CFU-GM cells assessed as zone of inhibition at 90 ug/disk by disk diffusion soft agar colony forming assay. Type of experiment: functional. The note with it: read-out: IZ.
In another experiment the test system is HCT-116. As to the kind of experiment: Cytotoxicity against human HCT116 cells. It is filed as functional, cell-based.

By IC50 is commonly meant the midpoint of a concentration-inhibition curve. As for `Cn1cc(Cl)cc1C(=O)NCC(=O)N[C@H]1CNC(=O)[C@H](Cc2c[nH]c3ccc(Br)cc23)NC(=O)[C@@H](O)CNC(=O)[C@H](CC(N)=O)NC1=O` (X1-G[Dap]N[isoSer(2S)][Trp(5-Br)]; lactam 2-C), the zone of inhibition at 90 µg/disc came out at 26 mm in experiment [1] and 16 mm in experiment [2]. Also, in the experiment with HCT-116, the IC50 was more than 10 µg/mL.
